# Measured values: patent publication US20240057595A1, “INSECT REPELLENT COMPOSITIONS” (Manus Bio Inc., priority 2020, published 2024)
# Tested on: Aedes aegypti UGAL mosquito strain (adult female)
# Assay: Mortality assay on treated filter paper
# Format: in vivo
# Conditions: 0.5% solution; within the first 20 minutes; FIG. 4
# Experimental: A mortality assay was employed to evaluate mosquito mortality in response to exposure to eleven different treatments including water, a series of NKT dilutions, and 0.5% permethrin. The Aedes aegypti UGAL mosquito strain (adult female) was used in this example.
# The experiments were conducted in a well-lit, temperature- and humidity-controlled room. The room was 22-24° C. with humidity at 40-45%. To conduct these experiments, each treatment had four replicates under the same conditions. A filter paper, 10 cm in diameter, was treated with 340 μl of an experimental or control solution using a standardized spray bottle (113.3 μl/spray) that was held approximately 5 cm away from the paper. The treated filter paper was placed into an open petri dish with a diameter of 10 cm. […] Female mosquitoes were then anesthetized on ice for five minutes. After 60 minutes, 10 ice-anesthetized adult female mosquitoes were transferred onto the treated paper using soft featherweight forceps. The petri dish lid was placed on top, and the mosquitoes were given two minutes to revive before the timer was started. Mosquitoes were then monitored every five minutes. Mosquitoes on their back were considered knocked down and marked as deceased in these experiments. […] Log-rank (Mantel-Cox) test was performed for comparison of survival curves.
compound,measurement,value
CC1(C)C(C=C(Cl)Cl)C1C(=O)OCc1cccc(Oc2ccccc2)c1 (stereo not shown) [permethrin],knockdown effect,strong immediate knockdown effect
